Reference: patent US12329883B2, “Soft tissue repair implants comprising hydroxybutyrate” (Davol Inc., priority 2017, dated 2025)

Test system: cathelicidin LL-37 expression
Assay: cathelicidin LL-37 immunolabeling of primary macrophages exposed for 18 hours to samples
Assay type: cell-based, C57bl/6 mice
Conditions: primary bone marrow-derived macrophages, 18 hours exposure
Procedure: Primary macrophages were differentiated from mononuclear cells harvested from the bone marrow of C57bl/6 mice. A solution of these primary macrophages was divided into 18 wells, each of which was exposed for 18 hours to one of samples nos. 1-18; i.e., a composition comprising either a species of interest dissolved in cell growth media or a solubilized biological scaffold dissolved in cell growth media. […]
After immunolabeling preparation, images were taken of the counterstained macrophages for three 20× fields for each well using a Zeus live-cell microscope. […] The light exposure time that produced the best images was determined, and the remaining samples were imaged at this light exposure time.
After immunolabeling, each macrophage nucleus appeared blue in the immunolabeling images and cathelicidin LL-37 appeared green. The percentages of macrophages expressing cathelicidin LL-37 shown in FIG. 7 were calculated by dividing the number of cathelicidin LL-37-expressing cells in each image (determined by the number of blue nuclei located in close proximity to green cathelicidin LL-37) by the number of cells in each image (determined by the number of blue nuclei in each image). The identification of cathelicidin LL-37 and cell nuclei in the images was determined with the aid of CellProfiler, a […] software analyzer (available at http://www.cellprofiler.org). […]

## O=C(O)CCCO [4-hydroxybutyrate]
Example 1, 4HB 12 mM
  cathelicidin LL-37 expression (percent of cathelicidin LL-37 expressing cells, FIG. 6 and FIG. 7): strongly promoted
Example 2, concentration series of Table 2
  cathelicidin LL-37 expression (percent of cathelicidin LL-37 expressing cells, FIG. 8 and FIGS. 9-16): effectively induce
